Measured values: patent publication US7247643B2, “8-aza-bicyclo (3.2.1) octane derivatives and their use as monoamine neurotransmitter re-uptake inhibitors” (NeuroSearch A/S, priority 2003, dated 2007)
Structures can show the parent of a compound that is named as a salt.

Legend:
[1] = molecular target: T1, DA-uptake (reuptake of dopamine in synaptosomes) (Rattus norvegicus, UniProt P23977); assay: Inhibition of dopamine (DA) reuptake in synaptosomes; format: biochemical
T1 construct: In synaptosomes as described in WO 97/16451; from tissue
T1 sequence (P23977 whole entry): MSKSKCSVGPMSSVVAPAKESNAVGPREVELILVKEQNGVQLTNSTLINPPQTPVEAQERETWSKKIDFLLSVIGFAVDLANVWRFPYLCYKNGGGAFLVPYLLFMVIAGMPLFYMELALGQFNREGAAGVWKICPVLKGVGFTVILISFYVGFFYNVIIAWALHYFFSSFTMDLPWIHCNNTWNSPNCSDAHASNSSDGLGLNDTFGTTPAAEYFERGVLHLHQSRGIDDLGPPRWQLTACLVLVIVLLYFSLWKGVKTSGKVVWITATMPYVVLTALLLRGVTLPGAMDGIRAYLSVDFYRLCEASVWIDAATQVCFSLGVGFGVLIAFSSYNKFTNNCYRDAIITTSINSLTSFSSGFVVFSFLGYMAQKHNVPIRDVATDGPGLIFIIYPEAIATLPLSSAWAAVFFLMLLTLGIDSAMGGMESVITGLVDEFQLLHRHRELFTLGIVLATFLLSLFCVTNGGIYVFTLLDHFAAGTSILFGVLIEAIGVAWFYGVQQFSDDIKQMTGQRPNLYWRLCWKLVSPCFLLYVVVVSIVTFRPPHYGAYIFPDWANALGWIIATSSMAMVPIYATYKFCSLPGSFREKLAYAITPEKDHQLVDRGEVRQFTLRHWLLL
Method: (§1) A number of compounds were tested for their ability to inhibit the reuptake of the monoamine neurotransmitters dopamine (DA) noradrenaline(NA) and serotonin (5-HT) In synaptosomes as described in WO 97/16451.
(§2) The test values are given as IC50 (the concentration (μM) of the test substance which inhibits the specific binding of ^3H-DA, ^3H-NA, or ^3H-5-HT by 50%).

[2] = molecular target: T2, NA-uptake (reuptake of noradrenaline in synaptosomes) (Rattus norvegicus, UniProt Q9WTR4); assay: Inhibition of noradrenaline (NA) reuptake in synaptosomes; format: biochemical
T2 construct: In synaptosomes as described in WO 97/16451; from tissue
T2 sequence (Q9WTR4 1-597): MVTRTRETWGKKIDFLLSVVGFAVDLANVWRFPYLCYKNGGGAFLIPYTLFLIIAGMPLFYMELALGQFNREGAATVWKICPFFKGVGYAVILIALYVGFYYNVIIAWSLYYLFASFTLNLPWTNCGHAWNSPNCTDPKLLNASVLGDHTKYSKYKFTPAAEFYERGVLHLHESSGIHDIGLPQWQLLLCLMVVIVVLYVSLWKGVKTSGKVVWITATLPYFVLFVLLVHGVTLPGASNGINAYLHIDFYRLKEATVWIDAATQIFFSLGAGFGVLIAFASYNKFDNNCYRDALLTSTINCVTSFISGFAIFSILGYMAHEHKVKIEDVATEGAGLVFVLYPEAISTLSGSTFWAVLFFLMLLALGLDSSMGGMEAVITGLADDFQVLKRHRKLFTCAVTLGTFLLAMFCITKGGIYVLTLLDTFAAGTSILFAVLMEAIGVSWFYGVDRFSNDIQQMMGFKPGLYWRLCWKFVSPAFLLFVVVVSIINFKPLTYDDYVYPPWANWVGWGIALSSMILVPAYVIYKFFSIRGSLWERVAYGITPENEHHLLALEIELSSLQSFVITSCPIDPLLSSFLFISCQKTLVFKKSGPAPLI
Method: as §1, §2

[3] = molecular target: T3, 5-HT-uptake (reuptake of serotonin in synaptosomes) (Rattus norvegicus, UniProt P31652); assay: Inhibition of serotonin (5-HT) reuptake in synaptosomes; format: biochemical
T3 construct: In synaptosomes as described in WO 97/16451; from tissue
T3 sequence (P31652 whole entry): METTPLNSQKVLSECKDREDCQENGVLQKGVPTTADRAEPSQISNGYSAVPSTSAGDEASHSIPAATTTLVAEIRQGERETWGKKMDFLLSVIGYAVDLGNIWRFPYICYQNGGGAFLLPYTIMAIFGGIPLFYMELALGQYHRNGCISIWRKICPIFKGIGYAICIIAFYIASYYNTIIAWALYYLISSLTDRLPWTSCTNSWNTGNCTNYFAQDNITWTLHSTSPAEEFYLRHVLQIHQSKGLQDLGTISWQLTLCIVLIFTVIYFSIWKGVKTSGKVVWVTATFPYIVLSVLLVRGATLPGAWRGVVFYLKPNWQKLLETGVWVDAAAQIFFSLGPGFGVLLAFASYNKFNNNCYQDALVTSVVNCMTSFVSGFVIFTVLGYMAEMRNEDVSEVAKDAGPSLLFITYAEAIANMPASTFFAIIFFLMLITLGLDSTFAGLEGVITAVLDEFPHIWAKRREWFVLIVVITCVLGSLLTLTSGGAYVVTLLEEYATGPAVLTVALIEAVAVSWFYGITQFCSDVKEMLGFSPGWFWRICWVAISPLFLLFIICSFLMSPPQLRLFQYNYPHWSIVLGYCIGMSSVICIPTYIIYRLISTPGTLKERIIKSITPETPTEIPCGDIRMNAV
Method: as §1, §2

Which IC50 [1] does the source give for c1csc(C2CC3CCC(N3)C2COc2cccc3ccccc23)c1 [2nd compound of method E, (2R,3S)-2-(1-Naphthyloxymethyl)-8-H-3-(2-thienyl)-8-aza-bicyclo[3.2.1]octane fumaric acid salt] here?
The IC50 was 190 nM.

What about the IC50 [2] of the same compound?
Its IC50 is 1.6 nM.

And the IC50 [3]?
The IC50 was 0.54 nM.

What does the source list for CN1C2CCC1[C@H](COc1cccc3ccccc13)[C@@H](c1ccco1)C2 (stereo partly drawn) [6th compound of method D, (2R,3S)-2-(1-Naphthyloxymethyl)-8-methyl-3-(2-furanyl)-8-aza-bicyclo[3.2.1]octane fumaric acid salt]?
IC50 [1]: 920 nM; IC50 [2]: 3 nM; IC50 [3]: 0.53 nM

Which IC50 [1] does the source give for CN1C2CCC1[C@H](COc1cccc(Cl)c1Cl)[C@@H](c1ccco1)C2.O=C(O)/C=C/C(=O)O (stereo partly drawn) [5th compound of method D, (2R,3S)-2-(2,3-Dichlorophenoxymethyl)-8-methyl-3-(2-furanyl)-8-aza-bicyclo[3.2.1]octane fumaric acid salt] here?
The IC50 was 310 nM.

And the IC50 [2]?
The IC50 was 0.9 nM.

And the IC50 [3]?
The IC50 was 0.36 nM.

What about the melting point of the same compound?
Its melting point is 156.4 to 205.9 °C.

What does the source list for CN1C2CCC1[C@H](COc1cccc(Cl)c1Cl)[C@@H](c1cccs1)C2 (stereo partly drawn) [1st compound of method D, (2R,3S)-2-(2,3-Dichlorophenoxymethyl)-8-methyl-3-(2-thienyl)-8-aza-bicyclo[3.2.1]octane fumaric acid salt]?
IC50 [1]: 300 nM; IC50 [2]: 1.9 nM; IC50 [3]: 0.52 nM

Which melting point does the source give for Clc1cccc(OCC2C3CCC(CC2c2cccs2)N3)c1Cl (as salt: fumaric acid salt) [1st compound of method E, (2R,3S)-2-(2,3-Dichlorophenoxymethyl)-8-H-3-(2-thienyl)-8-aza-bicyclo[3.2.1]octane fumaric acid salt] here?
The melting point was 201.2 °C.

Which melting point does the source give for c1csc(C2CC3CCC(N3)C2COc2cccc3ccccc23)c1 (as salt: fumaric acid salt) [2nd compound of method E, (2R,3S)-2-(1-Naphthyloxymethyl)-8-H-3-(2-thienyl)-8-aza-bicyclo[3.2.1]octane fumaric acid salt] here?
The melting point was 199.1 °C.

Which results are given for Clc1cccc(OCC2C3CCC(CC2c2cccs2)N3)c1Cl [1st compound of method E, (2R,3S)-2-(2,3-Dichlorophenoxymethyl)-8-H-3-(2-thienyl)-8-aza-bicyclo[3.2.1]octane fumaric acid salt]?
IC50 [1]: 74 nM; IC50 [2]: 1.8 nM; IC50 [3]: 0.74 nM

Which IC50 [1] does the source give for CN1C2CCC1[C@H](COc1cccc3ccccc13)[C@@H](c1cccs1)C2.O=C(O)/C=C/C(=O)O (stereo partly drawn) [2nd compound of method D, (2R,3S)-2-(1-Naphthyloxymethyl)-8-methyl-3-(2-thienyl)-8-aza-bicyclo[3.2.1]octane fumaric acid salt] here?
Its IC50 is 360 nM.

And the IC50 [2]?
The IC50 was 3.6 nM.

And the IC50 [3]?
The IC50 was 0.42 nM.

What about the melting point of the same compound?
The melting point was 203.1 °C.
